Experimental findings from US8993566B2, “Quinoline compound composing 1,2,4-triazine-dione and use thereof” (Wuhan Shengyun Biopharma Co., Ltd., priority 2012, dated 2015) are described below.

In assay [1] the test system is human nonsmall-cell lung cancer cell H460. Description: In vitro anti-tumor cell activity (MTT), H460. The class given is cell-based. The following applies: for IC50: Homo sapiens, read-out: H460 IC50. As for the experimental part:
(§1) The digested cell solution was poured into a centrifuge tube, to which a culture media was added to stop the digestion. The centrifuge tube was centrifuged at 800 r/min for 10 min, the supernatant was removed gently and then 5 mL of the culture media was added. The cells were pipetted and mixed homogeneously. 10 μL cell suspension was taken into a cell counting plate for counting, wherein the cell concentration was adjusted to 10^4 cells/well. To each well of a 96-well plate, except for A1 well as blank control, was added 100 μL of the cell suspension. The 96-well plate was placed in an incubator and cultivated for 24 h. […] The 96-well plate was placed in an incubator and cultivated for 72 h. (3) The culture media containing the compounds in the 96-well plate was removed, and the cells were washed with phosphate buffered solution (PBS) twice. To each well was added 100 μL MTT (tetrazole) (0.5 mg/mL), after placing the plate in an incubator to incubate for 4 h, the MTT solution was removed and 100 μL dimethyl sulfoxide was added. The reaction product of survival cells with MTT, i.e. formazan, was dissolved completely by oscillation on a magnetic oscillator, and then placed into a microplate reader to measure the results, and the IC50 values of compounds could be deduced by Bliss method.

Assay [2] relates to human gastric cancer cell MKN-45. Nature of the assay: In vitro anti-tumor cell activity (MTT), MKN-45. The following applies: for IC50: Homo sapiens, read-out: MKN-45 IC50. The class given is cell-based. The protocol: as §1
Assay [3] relates to human hepatoma carcinoma cell line SMMC-7721. Nature of the assay: In vitro anti-tumor cell activity (MTT), SMMC-7721. The conditions noted are these: for IC50: Homo sapiens, read-out: SMMC-7721 IC50. Type of assay: cell-based. As for the experimental part:
as §1

Assay [4] concerns human colon cancer cell HT-29. Nature of the assay: In vitro anti-tumor cell activity (MTT), HT-29. The class given is cell-based. The following applies: for IC50: Homo sapiens, read-out: HT-29 IC50. As for the experimental part: as §1
Assay [5] deals with T1, c-Met kinase (His-tagged recombinant human Met (amino acids 974-end)) (Homo sapiens, UniProt P08581).
T1 construct: His-tagged recombinant human Met (amino acids 974-end); His
T1 sequence (P08581 956-1390): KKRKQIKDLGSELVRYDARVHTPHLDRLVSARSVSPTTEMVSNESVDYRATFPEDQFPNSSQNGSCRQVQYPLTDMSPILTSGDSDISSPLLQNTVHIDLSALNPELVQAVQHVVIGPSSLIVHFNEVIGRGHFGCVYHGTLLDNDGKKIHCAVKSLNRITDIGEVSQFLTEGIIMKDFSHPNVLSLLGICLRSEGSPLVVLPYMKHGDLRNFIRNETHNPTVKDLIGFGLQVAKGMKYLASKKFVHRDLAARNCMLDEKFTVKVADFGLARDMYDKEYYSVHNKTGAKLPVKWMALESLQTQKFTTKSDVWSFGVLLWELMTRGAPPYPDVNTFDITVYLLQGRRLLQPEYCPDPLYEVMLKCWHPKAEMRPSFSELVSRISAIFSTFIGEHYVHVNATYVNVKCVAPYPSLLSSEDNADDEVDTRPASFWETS
Nature of the assay: c-Met Enzyme Activity Inhibition Assay (ELISA). Type of assay: biochemical. The conditions noted are these: 50 pM c-Met, 5 μM ATP, room temperature 20 min; for IC50: read-out: IC50 for inhibiting c-Met kinase (converted). The protocol: c-Met Enzyme Activity Inhibition Assay
The assay for the determination of c-Met kinase activity is based on an enzyme linked immunosorbant assay (ELISA). A compound of Formula I, 50 pM c-Met (His-tagged recombinant human Met (amino acids 974-end), expressed by baculovirus), and 5 μM ATP in an assay buffer (25 mM MOPS, pH 7.4, 5 mM MgCl2, […], 100 μM sodium orthovanadate, 0.01% Triton X-100, 1 mM DTT, final DMSO concentration 1% (v/v)) were incubated on a plate coated with 0.25 mg/mL POT at room temperature for 20 min. The reaction mixture was removed by washing and the phosphorylated polymer substrate was detected with 0.2 μg/mL phosphotyrosine specific monoclonal antibody (PY20) conjugated to horseradish peroxidase (HRP). After the addition of 1M phosphoric acid to stop the development, the chromogenic substrate (TMB) color was quantitated by spectrophotometry at 450 nm.
(In general: An ELISA detects its analyte on a solid surface through an enzyme-linked reagent.)

Where [6] appears, read: NCI-H460, H460 cells, MTT, 72 h, Bliss method.
The mark [7] stands for this setting: MKN-45 cells, MTT, 72 h, Bliss method.
The mark [8] stands for this setting: SMMC-7721 cells, MTT, 72 h, Bliss method.
[9] abbreviates: HT-29 cells, MTT, 72 h, Bliss method.
Where [10] appears, read: H460 cells, MTT, 72 h, Bliss method.

Values after ≈ are worked out from the molar mass of the structure shown. Like-named read-outs stand apart in the source and are kept apart here.

As usually defined, the IC50 is the concentration at which inhibition is half-maximal. For `COc1cc2c(Oc3ccc(NC(=O)c4nn(-c5ccccc5)c(=O)n(C)c4=O)cc3F)ccnc2cc1OCCCN1CCCC1` [Example 1, N-[3-fluoro-4-[6-methoxy-7-[3-(tetrahydropyrrol-1-yl)propyloxy]quinolin-4-oxy]phenyl]-2-phenyl-4-methyl-3,5-dioxo-2,3,4,5-tetrahydro-1,2,4-triazine-6-carboxamide], the IC50 in assay [1] (NCI-H460, 72 h) is 0.26 µg/mL (≈ 0.406 µM); in assay [2] (MKN-45, 72 h), 0.042 µg/mL (≈ 0.0656 µM); in assay [3] (SMMC-7721, 72 h) it was 0.18 µg/mL (≈ 0.281 µM); in assay [4] (HT-29, 72 h) it was 0.12 µg/mL (≈ 0.187 µM); in assay [5], 71.8 nM.

As to `COc1cc2c(Oc3ccc(NC(=O)c4nn(-c5ccccc5)c(=O)n(C)c4=O)cc3F)ccnc2cc1OCCCN1CCOCC1` [Example 3, N-[3-fluoro-4-[6-methoxy-7-[3-(4-morpholinyl)propyloxy]quinolin-4-oxy]phenyl]-2-phenyl-4-methyl-3,5-dioxo-2,3,4,5-tetrahydro-1,2,4-triazine-6-carboxamide], the IC50 in assay [1] (setting [6]) is 0.17 µg/mL (≈ 0.259 µM); in assay [2] (setting [7]), 0.059 µg/mL (≈ 0.0898 µM); in assay [3] (setting [8]) it was 0.1 µg/mL (≈ 0.152 µM); in assay [4] (setting [9]), 0.14 µg/mL (≈ 0.213 µM); in assay [5], 88.3 nM.

As for `COc1cc2c(Oc3ccc(NC(=O)c4nn(-c5ccccc5)c(=O)n(C)c4=O)cc3F)ccnc2cc1OCCCN1CCN(C)CC1` [Example 5, N-[3-fluoro-4-[6-methoxy-7-[3-(4-methyl-1-piperazinyl)propyloxy]oxy]phenyl)-2-phenyl-4-methyl-3,5-dioxo-2,3,4,5-tetrahydro-1,2,4-triazine-6-carboxamide], the “H460 IC50” value in assay [1] (setting [10]) is 0.094 µg/mL. Besides, in assay [2] (setting [7]), the “MKN-45 IC50” value stood at 0.12 µg/mL. The “SMMC-7721 IC50” value in assay [3] (setting [8]) was determined as 0.15 µg/mL. Moreover, the “HT-29 IC50” value in assay [4] (setting [9]) came to 0.12 µg/mL. For the same molecule, in assay [5], the “IC50 for inhibiting c-Met kinase” value came out at 0.28 µg/mL.

As to `COc1cc2c(Oc3ccc(NC(=O)c4nn(-c5ccc(F)cc5)c(=O)n(C)c4=O)cc3F)ccnc2cc1OCCCN1CCCC1` [Example 6, N-[3-fluoro-4-[6-methoxy-7-[3-(1-pyrrolidyl]propyloxy]quinolin-4-oxy]phenyl]-2-(4-fluorophenyl)-4-methyl-3,5-dioxo-2,3,4,5-tetrahydro-1,2,4-triazine-6-carboxamide], the 50% inhibitory concentration (IC50) in assay [1] (setting [6]) is 0.032 µg/mL (≈ 0.0486 µM); in assay [2] (setting [7]), 0.021 µg/mL (≈ 0.0319 µM); in assay [3] (setting [8]), 0.11 µg/mL (≈ 0.167 µM); in assay [4] (setting [9]), 0.06 µg/mL (≈ 0.0911 µM); in assay [5], 48.6 nM.

`COc1cc2c(Oc3ccc(NC(=O)c4nn(-c5ccc(Br)cc5)c(=O)n(C)c4=O)cc3F)ccnc2cc1OCCCN1CCCCC1` [Example 7]: in assay [1] (setting [10]), the “H460 IC50” value was 0.13 µg/mL. Moreover, the “MKN-45 IC50” value in assay [2] (setting [7]) amounted to 0.033 µg/mL. Also, the “SMMC-7721 IC50” value in assay [3] (setting [8]) stood at 0.21 µg/mL. In assay [4] (setting [9]), the “HT-29 IC50” value came out at 0.27 µg/mL. Further, the “IC50 for inhibiting c-Met kinase” value in assay [5] is 0.048 µg/mL.

Regarding `COc1cc2c(Oc3ccc(NC(=O)c4nn(-c5ccc(F)cc5)c(=O)n(C)c4=O)cc3F)ccnc2cc1OCCCN1CCOCC1` [Example 8, N-[3-fluoro-4-[6-methoxy-7-[3-(4-morpholinyl)propyloxy]quinolin-4-oxy]phenyl]-2-(4-fluorophenyl)-4-methyl-3,5-dioxo-2,3,4,5-tetrahydro-1,2,4-triazine-6-carboxamide], the half-inhibitory concentration (IC50) is 0.33 µg/mL (≈ 0.489 µM) in assay [1] (setting [6]); 0.077 µg/mL (≈ 0.114 µM) in assay [2] (setting [7]); 0.42 µg/mL (≈ 0.623 µM) in assay [3] (setting [8]); 0.28 µg/mL (≈ 0.415 µM) in assay [4] (setting [9]); 623 nM in assay [5].

As for `COc1cc2c(Oc3ccc(NC(=O)c4nn(-c5ccc(F)cc5)c(=O)n(C)c4=O)cc3F)ccnc2cc1OCCCN1CCC(C)CC1` [Example 9, N-[3-fluoro-4-[6-methoxy-7-[3-(4-methyl-1-piperidinyl)propyloxy]quinolin-4-oxy]phenyl]-2-(4-fluorophenyl)-4-methyl-3,5-dioxo-2,3,4,5-tetrahydro-1,2,4-triazine-6-carboxamide], the half-maximal inhibitory concentration (IC50) in assay [1] (setting [6]) was 0.17 µg/mL (≈ 0.248 µM); in assay [2] (setting [7]), 0.065 µg/mL (≈ 0.0947 µM); in assay [3] (setting [8]) it was 0.09 µg/mL (≈ 0.131 µM); in assay [4] (setting [9]), 0.21 µg/mL (≈ 0.306 µM); in assay [5] it was 233 nM.

In the case of `COc1cc2c(Oc3ccc(NC(=O)c4nn(-c5ccc(F)cc5)c(=O)n(C)c4=O)cc3F)ccnc2cc1OCCCN1CCN(C)CC1` [Example 10, N-[3-fluoro-4-[6-methoxy-7-[3-(4-methyl-1-piperazinyl)propyloxy]quinolin-4-oxy]phenyl]-2-(4-fluorophenyl)-4-methyl-3,5-dioxo-2,3,4,5-tetrahydro-1,2,4-triazine-6-carboxamide], the 50% inhibitory concentration (IC50) in assay [1] (setting [6]) is 0.0081 µg/mL (≈ 0.0118 µM); in assay [2] (setting [7]), 0.0065 µg/mL (≈ 0.00945 µM); in assay [3] (setting [8]), 0.11 µg/mL (≈ 0.16 µM); in assay [4] (setting [9]), 0.093 µg/mL (≈ 0.135 µM); in assay [5], 106 nM.

With `COc1cc2c(Oc3ccc(NC(=O)c4nn(-c5ccc(C)cc5)c(=O)n(C)c4=O)cc3F)ccnc2cc1OCCCN1CCN(C)CC1` [Example 15, N-[3-fluoro-4-[6-methoxy-7-[3-(4-methyl-1-piperazinyl)propyloxy]quinolin-4-oxy]phenyl]-2-(4-methylphenyl)-4-methyl-3,5-dicarbonyl-2,3,4,5-tetrahydro-1,2,4-triazine-6-carboxamide;], the “H460 IC50” value in assay [1] (setting [10]) stood at 0.18 µg/mL. Further, the “SMMC-7721 IC50” value in assay [3] (setting [8]) turned out to be 0.79 µg/mL. In addition, in assay [4] (setting [9]), the “HT-29 IC50” value was 0.5 µg/mL. In addition, the “IC50 for inhibiting c-Met kinase” value in assay [5] was determined as 0.009 µg/mL.

For the molecule `COc1cc2c(Oc3ccc(NC(=O)c4nn(-c5ccc(F)c(F)c5)c(=O)n(C)c4=O)cc3F)ccnc2cc1OCCCN1CCCC1` [Example 16, N-[3-fluoro-4-[6-methoxy-7-[3-(1-pyrrolidyl)propyloxy]quinolin-4-oxy]phenyl]-2-(3,4-difluorophenyl)-4-methyl-3,5-dioxo-2,3,4,5-tetrahydro-1,2,4-triazine-6-carboxamide], the IC50 was 0.22 µg/mL (≈ 0.325 µM) in assay [1] (setting [6]); 0.027 µg/mL (≈ 0.0399 µM) in assay [2] (setting [7]); 0.34 µg/mL (≈ 0.502 µM) in assay [3] (setting [8]); 0.3 µg/mL (≈ 0.443 µM) in assay [4] (setting [9]); 783 nM in assay [5].

As to “N-[3-fluoro-4-[6-methoxy-7-[3-(1-piperidinyl)propyloxy]quinolin-4-oxy]phenyl]-2-(4-methylphenyl)-4-methyl-3,5-dicarbonyl-2,3,4,5-tetrahydro-1,2,4-triazine-6-carboxamide [Example 12]”, the “H460 IC50” value in assay [1] (setting [10]) turned out to be 0.12 µg/mL. Besides, the “SMMC-7721 IC50” value in assay [3] (setting [8]) is 0.74 µg/mL. In addition, in assay [4] (setting [9]), the “HT-29 IC50” value worked out at 0.11 µg/mL. Moreover, in assay [5], the “IC50 for inhibiting c-Met kinase” value came out at 0.18 µg/mL.

For “N-[3-fluoro-4-[6-methoxy-7-[3-(1-piperidinyl)propyloxy]quinolin]-4-oxy]phenyl]-2-phenyl-4-benzyl-3,5-dicarbonyl-2,3,4,5-tetrahydro-1,2,4-triazine-6-carboxamide [Example 46]”, the “H460 IC50” value in assay [1] (setting [10]) worked out at 0.8 µg/mL. Besides, the “MKN-45 IC50” value in assay [2] (setting [7]) is 0.1 µg/mL. In addition, the “SMMC-7721 IC50” value in assay [3] (setting [8]) amounted to 1.4 µg/mL. In addition, the “HT-29 IC50” value in assay [4] (setting [9]) is 0.3 µg/mL.

On to “N-[3-fluoro-4-[6-methoxy-7-[3-(4-morpholinyl)propyloxy]quinolin-4-oxy]phenyl]-2-(4-methylphenyl)-4-methyl-3,5-dicarbonyl-2,3,4,5-tetrahydro-1,2,4-triazine-6-carboxamide [Example 13]”, for which the “H460 IC50” value in assay [1] (setting [10]) worked out at 0.28 µg/mL. For the same molecule, the “SMMC-7721 IC50” value in assay [3] (setting [8]) was found to be 0.67 µg/mL. For the same molecule, in assay [4] (setting [9]), the “HT-29 IC50” value amounted to 0.19 µg/mL. For the same molecule, the “IC50 for inhibiting c-Met kinase” value in assay [5] amounted to 0.25 µg/mL.

For “N-[3-fluoro-4-[6-methoxy-7-[3-(4-morpholinyl)propyloxy]quinolin]-4-oxy]phenyl]-2-(2,4-dichlorophenyl)-4-benzyl-3,5-dicarbonyl-2,3,4,5-tetrahydro-1,2,4-triazine-6-carboxamide [Example 43]”, the “H460 IC50” value in assay [1] (setting [10]) was 0.65 µg/mL. Also, the “MKN-45 IC50” value in assay [2] (setting [7]) was determined as 0.07 µg/mL. Moreover, the “SMMC-7721 IC50” value in assay [3] (setting [8]) came out at 1.4 µg/mL. Also, the “HT-29 IC50” value in assay [4] (setting [9]) came out at 0.32 µg/mL.
